Data from the supplement of paper PMC10307832.

Assays:
Assay in all cases: relative viability (nuclei count vs DMSO), 5 days (fraction); higher = more cells survive
Bleomycin + Crizotinib = compound: CC1=C(N=C(N=C1N)[C@H](CC(=O)N)NC[C@@H](C(=O)N)N)C(=O)N[C@@H]([C@H](C2=CN=CN2)OC3C(C(C(C(O3)CO)O)O)OC4C(C(C(C(O4)CO)O)OC(=O)N)O)C(=O)N[C@H](C)[C@H]([C@H](C)C(=O)N[C@@H]([C@@H](C)O)C(=O)NCCC5=NC(=CS5)C6=NC(=CS6)C(=O)NCCC[S+](C)C)O [Bleomycin] + C[C@@H](Oc1cc(-c2cnn(C3CCNCC3)c2)cnc1N)c1c(Cl)ccc(F)c1Cl [Crizotinib] (partner 1 µM); conditions: main component drawn
Summary of the method: (§1)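 Dosing by pin tool came one day after lung cancer cell lines were seeded in 1536-well plates, using either one drug or a fixed anchor-drug dose plus five library-drug doses (not always all listed) in √10 steps. After 5 days, nuclei were counted on 4× images. Relative viability is treated-well nuclei count divided by vehicle-well nuclei count, and values are medians of duplicate plates.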

Bleomycin + Decitabine = compound: CC1=C(N=C(N=C1N)[C@H](CC(=O)N)NC[C@@H](C(=O)N)N)C(=O)N[C@@H]([C@H](C2=CN=CN2)OC3C(C(C(C(O3)CO)O)O)OC4C(C(C(C(O4)CO)O)OC(=O)N)O)C(=O)N[C@H](C)[C@H]([C@H](C)C(=O)N[C@@H]([C@@H](C)O)C(=O)NCCC5=NC(=CS5)C6=NC(=CS6)C(=O)NCCC[S+](C)C)O [Bleomycin] + Nc1ncn([C@H]2C[C@H](O)[C@@H](CO)O2)c(=O)n1 [Decitabine] (partner 2 µM); conditions: main component drawn
Summary of the method: as §1

Etoposide + Tozasertib = compound: COc1cc([C@@H]2c3cc4c(cc3[C@@H](O[C@@H]3O[C@@H]5CO[C@@H](C)O[C@H]5[C@H](O)[C@H]3O)[C@H]3COC(=O)[C@H]23)OCO4)cc(OC)c1O [Etoposide] + Cc1cc(Nc2cc(N3CCN(C)CC3)nc(Sc3ccc(NC(=O)C4CC4)cc3)n2)n[nH]1 [Tozasertib] (partner 0.1 µM)
Summary of the method: as §1

Etoposide + Vorinostat = compound: COc1cc([C@@H]2c3cc4c(cc3[C@@H](O[C@@H]3O[C@@H]5CO[C@@H](C)O[C@H]5[C@H](O)[C@H]3O)[C@H]3COC(=O)[C@H]23)OCO4)cc(OC)c1O [Etoposide] + O=C(CCCCCCC(=O)Nc1ccccc1)NO [Vorinostat] (partner 1 µM)
Summary of the method: as §1

Cell Line	relative viability (Bleomycin + Crizotinib; first compound 0.01 µM)	relative viability (Bleomycin + Crizotinib; first compound 0.03162 µM)	relative viability (Bleomycin + Crizotinib; first compound 0.1 µM)	relative viability (Bleomycin + Crizotinib; first compound 0.3162 µM)	relative viability (Bleomycin + Crizotinib; first compound 1 µM)	relative viability (Bleomycin + Decitabine; first compound 0.01 µM)	relative viability (Bleomycin + Decitabine; first compound 0.03162 µM)	relative viability (Bleomycin + Decitabine; first compound 0.1 µM)	relative viability (Bleomycin + Decitabine; first compound 0.3162 µM)	relative viability (Bleomycin + Decitabine; first compound 1 µM)	relative viability (Etoposide + Tozasertib; first compound 0.01 µM)	relative viability (Etoposide + Tozasertib; first compound 0.03162 µM)	relative viability (Etoposide + Tozasertib; first compound 0.1 µM)	relative viability (Etoposide + Tozasertib; first compound 0.3162 µM)	relative viability (Etoposide + Tozasertib; first compound 1 µM)	relative viability (Etoposide + Vorinostat; first compound 0.01 µM)	relative viability (Etoposide + Vorinostat; first compound 0.03162 µM)	relative viability (Etoposide + Vorinostat; first compound 0.1 µM)	relative viability (Etoposide + Vorinostat; first compound 0.3162 µM)	relative viability (Etoposide + Vorinostat; first compound 1 µM)
LCLC-97TM1	0.18	0.219	0.14	0.109	0.0966	0.2	0.156	0.168	0.158	0.0988	0.201	0.2	0.208	0.19	0.144	0.783	0.896	0.315	0.316	0.0855
LCLC-103H	0.956	1.01	1	0.915	0.588	0.676	0.68	0.677	0.721	0.537	0.427	0.574	0.459	0.526	0.35	0.745	0.94	0.663	0.672	0.575
RERF-LC-KJ	0.541	0.513	0.421	0.23	0.197	0.418	0.478	0.336	0.213	0.145	0.532	0.448	0.493	0.386	0.316	0.624	0.728	0.5	0.621	0.412
BEN	0.769	0.829	0.94	0.671	0.742	0.719	0.745	0.685	0.607	0.542	0.463	0.503	–	0.483	0.481	0.542	0.722	–	0.559	0.616
NCI-H1666	0.717	0.57	0.469	0.339	0.325	0.699	0.56	0.505	0.442	0.388	0.551	0.592	0.485	0.356	0.372	0.94	0.933	0.918	0.632	0.549
LC-2-ad	0.428	0.404	0.326	0.226	0.275	0.72	0.737	0.541	0.309	0.292	0.39	0.441	0.327	0.339	0.285	0.687	0.736	0.69	0.459	0.245
SW 1573	0.713	0.604	0.711	0.402	0.227	0.368	0.442	0.311	0.19	0.197	0.163	0.133	0.164	0.156	0.0887	0.646	0.625	0.359	0.228	0.142
ChaGo-K-1	–	0.999	0.754	0.385	0.333	0.492	0.506	0.476	0.433	0.364	0.192	0.212	0.211	0.181	0.187	0.756	0.736	0.413	0.353	0.197
COR-L 105	0.587	0.875	0.52	0.368	0.364	0.594	0.588	0.519	0.419	0.371	0.385	0.345	0.291	0.353	0.366	1.09	0.856	0.731	0.727	0.734
NCI-H1975	0.774	0.693	0.662	0.319	0.241	0.327	0.437	0.291	0.209	0.177	0.721	0.67	0.785	0.495	0.197	0.726	0.728	0.739	0.476	0.328
NCI-H1993	0.629	0.712	0.693	0.678	0.527	0.602	0.507	0.556	0.519	0.436	0.634	0.506	0.576	0.495	0.55	–	0.683	0.507	0.718	0.284
SK-LU-1	0.816	1.11	0.797	0.446	0.428	0.598	0.631	0.655	0.554	0.492	0.356	0.278	0.318	0.161	0.167	0.696	0.671	0.638	0.273	0.249
NCI-H2347	0.707	0.677	0.744	0.362	0.515	0.572	0.635	0.543	0.514	0.488	0.518	0.554	0.419	0.433	0.291	0.412	0.646	0.475	0.382	0.432
HCC-366	0.152	0.137	0.0986	0.0238	0.0225	0.242	0.26	0.132	0.069	0.0541	0.0819	0.087	0.0918	0.0736	0.0452	0.353	0.386	0.122	0.0606	0.0304
EMC-BAC-2	0.628	0.626	0.738	0.318	0.241	–	0.712	0.538	0.342	0.328	0.251	0.276	0.288	0.221	0.203	0.636	0.428	0.239	0.153	0.139
NCI-H3122	0.253	0.271	0.305	0.214	0.253	0.441	0.49	0.358	0.324	0.26	0.441	0.324	0.262	0.281	0.159	1.04	1.11	0.598	0.66	0.224
NCI-H358	0.484	0.486	0.514	0.29	0.263	0.198	0.271	0.189	0.172	0.152	0.112	0.107	0.107	0.0887	0.0917	0.663	0.508	0.411	0.107	0.0977
NCI-H1944	0.544	0.565	0.432	0.237	0.186	0.365	0.321	0.275	0.252	0.159	0.258	0.278	0.211	0.182	0.168	0.532	0.532	0.334	0.282	0.147
EPLC-272H	0.776	0.88	0.655	0.358	0.152	0.358	0.343	0.301	0.171	0.129	0.336	0.213	0.211	0.235	0.112	0.415	0.464	0.426	0.267	0.235
NCI-H1915	0.661	0.665	0.45	0.337	0.183	0.259	0.237	0.238	0.193	0.141	0.438	0.459	0.473	0.353	0.308	0.511	0.616	0.426	0.477	0.418
NCI-H647	0.313	0.326	0.213	0.135	0.109	0.289	0.183	0.152	0.0939	0.0806	0.224	0.0009	0.271	0.205	0.112	0.467	0.631	0.657	0.181	0.103
NCI-H441	–	0.534	0.469	0.363	0.398	0.233	0.238	0.221	0.217	0.224	0.511	0.541	0.418	0.289	0.264	0.645	0.625	0.345	0.224	0.182
NCI-H23	0.249	0.231	0.251	0.162	0.153	0.307	0.265	0.235	0.184	0.177	0.344	0.333	0.29	0.201	0.163	0.633	0.604	0.316	0.262	0.145
NCI-H650	0.502	0.718	0.629	0.237	0.303	0.305	0.318	0.299	0.2	0.175	0.693	0.717	0.498	0.258	0.166	0.438	0.454	0.241	0.266	0.181
SK-MES-1	0.83	0.86	0.753	0.309	0.213	0.321	0.356	0.305	0.177	0.164	0.877	0.807	0.833	0.389	0.222	1.11	1.2	0.873	0.806	0.351
NCI-H2170	0.996	1.19	1.12	0.662	0.624	0.437	0.42	0.39	0.32	0.271	0.634	0.778	0.522	0.593	0.526	0.782	0.846	–	0.755	0.438
NCI-H2085	0.608	0.723	0.671	0.372	0.404	0.558	0.551	0.418	0.421	0.339	0.783	0.772	0.762	0.727	0.478	0.762	0.809	0.635	0.75	0.301
